Source: article PMC8637573, “EWS–FLI1‐targeting peptide identifies Ewing sarcoma tumor boundaries and lymph node metastasis via near‐infrared imaging” (Molecular Oncology, 2021)
Residues, ends and D or L forms follow the SMILES beside them.

Columns and labels:
E/F in A673 cells = biological target: T1, E/F in A673 cells (Homo sapiens, UniProt Q01543+Q01844); experiment: Binding affinity test (competition of E9R with CS2‐N‐E9R); details: E9R 4 × 10^−3 M to 4 × 10^−9 M incubated 1 h, washed, then 4 μM CS2‐N‐E9R 40 min, Odyssey Infrared Imager, average of quadruple wells, read-out: IC50 for the inhibition of CS2‐N‐E9R binding E/F
T1 construct: endogenous in cells; host or cells: A673 cells (fixed and permeabilised in A8, living in A10)
T1 sequence (Q01844+Q01543 with tags, fused parts or gaps): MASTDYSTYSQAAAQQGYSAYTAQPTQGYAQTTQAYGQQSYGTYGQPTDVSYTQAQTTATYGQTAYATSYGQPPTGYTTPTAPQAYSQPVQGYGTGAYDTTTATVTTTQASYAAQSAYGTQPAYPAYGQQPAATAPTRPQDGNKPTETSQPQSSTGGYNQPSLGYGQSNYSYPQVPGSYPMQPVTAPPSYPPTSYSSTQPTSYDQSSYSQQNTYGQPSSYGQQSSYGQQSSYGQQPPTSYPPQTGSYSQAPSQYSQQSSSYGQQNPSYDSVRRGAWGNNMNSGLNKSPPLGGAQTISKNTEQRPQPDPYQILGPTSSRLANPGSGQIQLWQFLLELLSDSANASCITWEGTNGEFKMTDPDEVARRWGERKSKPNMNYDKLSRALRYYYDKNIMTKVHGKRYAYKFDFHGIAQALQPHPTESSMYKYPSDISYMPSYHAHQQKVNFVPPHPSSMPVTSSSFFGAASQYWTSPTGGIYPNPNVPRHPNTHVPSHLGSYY
Experimental: As to the binding affinity test, serial concentrations of E9R (from 4 × 10^−3 M to 4 × 10^−9 M) were prepared as competitors for CS2‐N‐E9R. A673 cells were seeded into 96‐well Black Polystyrene Assay plate at a concentration of 4 × 10^3 cells per well with 150 μL medium containing 10% FBS at incubator for 24 h. Different concentrations of E9R were added into palate and incubated for 1 h, and then washed three times with PBS (pH 7.4). 4 μM of CS2‐N‐E9R was then added into each well and incubated for another 40 min. After that the samples were washed and imaged with Odyssey® Infrared Imager. Each data point represents the average value of quadruple wells. Data were analyzed using GRAPHPAD PRISM (GraphPad Software, San Diego, CA, USA). IC50 values, which were defined as the concentration of competitive agent required to inhibit 50% of CS2‐N‐E9R binding, were calculated.

A673 cells = experiment: Living cell fluorescence imaging; type: cell-based, human; details: A673 cells pre‐incubated with 50 μM E9R for 1 h, then 10 μM CS2‐N‐E9R
Experimental: E/F‐positive ES cells (A673) and E/F‐negative sarcoma cells (143B) were then seeded into confocal culture dishes at a density of 2 × 10^5 cells each dish in 1.5‐mL medium containing 10% FBS. After 24 h of cell attachment, the dishes were then washed three times with 1 mL PBS. The dishes were then cultured in medium with 10 μM probe CS2‐N‐E9R. The intracellular probe aggregations were then observed by Leica‐LCS‐SP8‐STED confocal microscope (Leica, Wetzlar, Germany).
E/F‐positive ES cells (A673 cells, RD‐ES cells) and E/F‐negative osteosarcoma cells (143B cells), hepatoma carcinoma cells (Hep3B cells), and […] embryonic human kidney cells (293T cells) were seeded into confocal culture dishes. All the dishes were incubated with 10 μM CS2‐N‐E9R for 1 h and washed three times with PBS buffer before imaging, except for the control and blocking groups. For the control group, A673 cells were incubated with 10 μM control probe CS2‐N‐E. For the blocking group, A673 cells were pre‐incubated with 50 μM peptide E9R as a blocking agent for 1 h, after that incubated with 10 μM probe CS2‐N‐E9R.

IC50 (E/F in A673 cells): 3.69 µM
Structure (SMILES): CC[C@H](C)[C@H](NC(=O)[C@@H](NC(=O)[C@H](C)NC(=O)[C@H](CC(=O)O)NC(=O)[C@H](CC(C)C)NC(=O)[C@@H]1CCCN1C(=O)[C@@H]1CCCN1C(=O)[C@@H]1CCCN1)C(C)C)C(=O)N[C@@H](CCC(=O)O)C(=O)N[C@@H](C)C(=O)O [E9R] (H-PPPLDAVIEA-OH; N-terminus assumed)
fluorescence of CS2‐N‐E9R after pretreatment with blocking agent (A673 cells): fluorescence muted
